Drawing on ChEMBL document CHEMBL1138365, “Application of 3D-QSAR for identification of descriptors defining bioactivity of antimicrobial peptides” (2007), this text covers MIC for 3 compounds.

Converted amounts (≈) assume the structure as drawn. Starred links: 1 amine or outer side, 2 acyl side, 3 side chain; linkers in the order of their positions; H or OH if unused. Non-standard residues stand in square brackets, D forms with d. Residues, ends and D or L forms follow the SMILES beside them. ξ: configuration not given here. Pro(3ξ,4ξ-(CH2)4) = O=C(O)[C@H]1NCC2CCCCC21; X1 = O=C([C@H]1C2CCCCC2CN1[*:1])[*:2]; Tic = O=C(O)[C@@H]1Cc2ccccc2CN1; dTic = O=C(O)[C@H]1Cc2ccccc2CN1; dOrn = NCCC[C@@H](N)C(=O)O

The test system of assay [1] is Mycolicibacterium fortuitum. Kind of assay: Antibacterial activity against Mycobacterium ranae. It is filed as functional.
Assay [2] concerns Staphylococcus aureus. In words: Antibacterial activity against Staphylococcus aureus. It is filed as functional.

Consider `CC(=O)NCC(=O)N[C@@H](Cc1ccccc1)C(=O)N1Cc2ccccc2C[C@H]1C(=O)N1CC2CCCCC2[C@H]1C(=O)NCC(=O)N[C@@H](CCCCN)C(=O)N1Cc2ccccc2C[C@H]1C(=O)N1CC2CCCCC2[C@H]1C(=O)NCC(=O)N[C@@H](Cc1ccccc1)C(=O)N1Cc2ccccc2C[C@H]1C(=O)N1CC2CCCCC2[C@H]1C(=O)NCC(=O)N[C@@H](CCCCN)C(=O)N1Cc2ccccc2C[C@H]1C(=O)N[C@@H](CCCCN)C(=O)N[C@@H](CCCCN)C(=O)N[C@@H](CCCCN)C(=O)N[C@@H](CCCCN)C(N)=O` (stereo partly specified) (Ac-GF[Tic][Pro(3ξ,4ξ-(CH2)4)]GK[Tic][Pro(3ξ,4ξ-(CH2)4)]GF[Tic][Pro(3ξ,4ξ-(CH2)4)]GK[Tic]KKKK-NH2), for which the MIC (usually the lowest concentration that inhibits growth of the organism) in assay [1] turned out to be 10 µM (≈ 24.4 µg/mL); in assay [2], 3 µM (≈ 7.32 µg/mL).

`CC(=O)NCC(=O)N[C@@H](Cc1ccccc1)C(=O)N1Cc2ccccc2C[C@H]1C(=O)N1CC2CCCCC2[C@@H]1C(=O)NCC(=O)N[C@H](CCCN)C(=O)N1Cc2ccccc2C[C@@H]1C(=O)N1CC2CCCCC2[C@H]1C(=O)NCC(=O)N[C@H](Cc1ccccc1)C(=O)N1Cc2ccccc2C[C@@H]1C(=O)N1CC2CCCCC2[C@@H]1C(=O)NCC(=O)N[C@H](CCCN)C(=O)N1Cc2ccccc2C[C@@H]1C(=O)N[C@H](CCCN)C(=O)N[C@H](CCCN)C(=O)N[C@H](CCCN)C(=O)N[C@H](CCCN)C(N)=O` (stereo partly specified) (Ac-GF[Tic][X1]G[dOrn][dTic][Pro(3ξ,4ξ-(CH2)4)]G[dF][dTic][X1]G[dOrn][dTic][dOrn][dOrn][dOrn][dOrn]-NH2): the MIC stood at 10 µM (≈ 23.6 µg/mL) in assay [1] and 3 µM (≈ 7.07 µg/mL) in assay [2].

In the case of `NCCCC[C@H](NC(=O)[C@H](CCCCN)NC(=O)[C@H](CCCCN)NC(=O)[C@H](CCCCN)NC(=O)[C@@H]1Cc2ccccc2CN1C(=O)[C@H](CCCCN)NC(=O)CNC(=O)[C@@H]1C2CCCCC2CN1C(=O)[C@@H]1Cc2ccccc2CN1C(=O)[C@H](Cc1ccccc1)NC(=O)CNC(=O)[C@@H]1C2CCCCC2CN1C(=O)[C@@H]1Cc2ccccc2CN1C(=O)[C@H](CCCCN)NC(=O)CNC(=O)[C@@H]1C2CCCCC2CN1C(=O)[C@@H]1Cc2ccccc2CN1C(=O)[C@H](Cc1ccccc1)NC(=O)CN)C(N)=O` (stereo partly specified) (H-GF[Tic][Pro(3ξ,4ξ-(CH2)4)]GK[Tic][Pro(3ξ,4ξ-(CH2)4)]GF[Tic][Pro(3ξ,4ξ-(CH2)4)]GK[Tic]KKKK-NH2), the MIC in assay [1] and in assay [2] was 10 µM (≈ 24 µg/mL) throughout.
